Literature values, collected in patent US20230157949A1, “ORAL FILM OF HIV DRUGS” (LAURUS LABS LIMITED, priority 2020, published 2023).

Settings: in combination with low doses of ritonavir

- increase of AUC: greater than 100 fold
Compound: Cc1cccc(C)c1OCC(=O)N[C@@H](Cc1ccccc1)[C@@H](O)C[C@H](Cc1ccccc1)NC(=O)[C@H](C(C)C)N1CCCNC1=O [lopinavir, Lopinavir]
